Data reported in patent publication US9464076B2, “Benzothiophene derivative” (Daiichi Sankyo Company, Limited, priority 2013, dated 2016).
Where a name gives a salt, the structure may show the parent alone. One block for each molecule: values may come before it.

Key:
Male C57BL/6 Cr mice [1] = experiment: Test on suppression of phencyclidine-induced hyperlocomotion in mice; format: in vivo, mouse; conditions: locomotor activity, test compound 10 mg/kg oral, phencyclidine 5 mg/kg s.c. approx. 1 hour later, measured for 1 hour; for inhibition in vivo at 10 mg/kg: Mus musculus, po, 1 h
Description: Male C57BL/6 Cr mice (Japan SLC, Inc.) (8 weeks old) were used in the experiment. A test compound was suspended at 1 mg/mL in a 0.5% hydroxypropylcellulose solution to prepare a suspension for administration. The suspension of the test compound or a solvent (0.5% hydroxypropylcellulose solution) was orally administered at a dose of 10 mL/kg to each mouse. After the administration, the mouse was immediately placed in a locomotor activity measurement apparatus (Muromachi Kikai Co., Ltd., locomotor activity measurement system SUPERMEX). Approximately 1 hour later, phencyclidine (5 mg/10 mL/kg) or a solvent (10 mL/kg saline) was subcutaneously administered to the mouse. The locomotor activity was measured from immediately after the subcutaneous administration to 1 hour later.
Percent inhibition exceeding 100 means that when the activity of the phencyclidine administration control group was defined as 100, the activity of the group given a test compound was lower than that of the solvent administration control group.

Male C57BL/6 Cr mice [2] = experiment: as above; format: in vivo; conditions: Mus musculus, oral, calculated by the linear regression method
[3] = molecular target: PDE10A (H-PDE10A2, Human Phosphodiesterase 10A2) (Homo sapiens (Human), UniProt Q9Y233); experiment: Measurement of PDE10A inhibitory activity-1 (3H-cAMP, recombinant enzyme); format: biochemical; conditions: H-PDE10A2, 64 nM cAMP, 25° C., 2 hours
Description: To a solution containing 20 mM Tris-HCl (pH 7.5), 1 mM MgCl2, 100 μM EDTA, 330 μg/ml bovine serum albumin, 50 kU/ml 5′-nucleotidase, 0.1 μCi ^3H-cAMP (64 nM cAMP), and PDE10A (H-PDE10A2, Human Phosphodiesterase 10A2, Scottish Biomedical), a test compound was added, and the mixture was reacted at 25° C. for 2 hours. To the reaction solution, QAE-Sephadex (17-0190-01, GE Healthcare Japan Corp.) suspended in 10 mM HEPES-Na (pH 7.0) (hereinafter, also referred to as a “QAE-Sephadex suspension”) was added, and the mixture was shaken for 1 minute and left standing for 5 minutes to obtain a supernatant. To the supernatant, a QAE-Sephadex suspension was further added, and the mixture was shaken for 1 minute and left standing for 5 minutes. Then, the obtained supernatant was transferred to LumaPlate (PerkinElmer, Inc.) and assayed using a radiation counter (TopCount NXT, PerkinElmer, Inc.).
The value of the sample reacted without the addition of both a test compound and PDE10A was defined as 0%, and the value of the sample reacted in the presence of PDE10A without the addition of a test compound was defined as 100%.

PDE10A = PDE10A (Homo sapiens (Human), UniProt Q9Y233); experiment: Measurement of PDE10A inhibitory activity-2 (PDE10A fraction prepared from MOLT-4 cells); format: biochemical; conditions: PDE10A fraction from MOLT-4 cells (peak around 250 mM NaCl)
Summary of the method: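 Enzyme source was a PDE10A-containing fraction from MOLT-4 cell soluble extract, resolved by HiTrap Q anion exchange with a 0–0.8 M NaCl gradient and selected by cAMP-hydrolysing activity. IC50 determined with this fraction by the same procedure as the preceding PDE10A assay.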

PDE10A, sequence (Q9Y233 whole entry): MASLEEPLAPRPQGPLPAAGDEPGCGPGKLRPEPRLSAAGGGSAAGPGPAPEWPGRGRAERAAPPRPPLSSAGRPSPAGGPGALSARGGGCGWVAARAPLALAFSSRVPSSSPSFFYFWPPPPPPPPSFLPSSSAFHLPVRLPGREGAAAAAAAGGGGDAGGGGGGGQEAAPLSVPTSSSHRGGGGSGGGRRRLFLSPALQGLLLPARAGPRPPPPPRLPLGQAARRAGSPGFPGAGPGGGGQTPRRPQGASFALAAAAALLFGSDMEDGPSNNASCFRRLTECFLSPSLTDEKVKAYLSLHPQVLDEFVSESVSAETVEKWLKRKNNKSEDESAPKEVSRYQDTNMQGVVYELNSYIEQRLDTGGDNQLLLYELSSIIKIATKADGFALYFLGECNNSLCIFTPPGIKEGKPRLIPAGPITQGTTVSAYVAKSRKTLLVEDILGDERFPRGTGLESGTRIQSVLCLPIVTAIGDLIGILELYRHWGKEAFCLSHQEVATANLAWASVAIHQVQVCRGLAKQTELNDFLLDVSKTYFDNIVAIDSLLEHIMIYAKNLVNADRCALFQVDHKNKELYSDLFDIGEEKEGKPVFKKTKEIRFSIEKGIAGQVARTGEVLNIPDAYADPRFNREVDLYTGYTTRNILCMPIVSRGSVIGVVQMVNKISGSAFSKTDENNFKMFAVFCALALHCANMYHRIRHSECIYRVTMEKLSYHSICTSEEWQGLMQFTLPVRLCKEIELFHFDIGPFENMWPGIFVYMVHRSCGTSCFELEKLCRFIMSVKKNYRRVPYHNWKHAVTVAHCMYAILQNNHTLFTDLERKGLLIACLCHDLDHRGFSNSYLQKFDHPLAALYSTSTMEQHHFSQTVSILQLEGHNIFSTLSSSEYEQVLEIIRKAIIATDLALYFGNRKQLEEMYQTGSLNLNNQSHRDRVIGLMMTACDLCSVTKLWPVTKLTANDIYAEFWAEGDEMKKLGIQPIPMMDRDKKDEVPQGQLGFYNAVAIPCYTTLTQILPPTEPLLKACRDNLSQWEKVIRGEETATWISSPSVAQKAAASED
PDE10A (H-PDE10A2, Human Phosphodiesterase 10A2), sequence (Q9Y233 267-1055): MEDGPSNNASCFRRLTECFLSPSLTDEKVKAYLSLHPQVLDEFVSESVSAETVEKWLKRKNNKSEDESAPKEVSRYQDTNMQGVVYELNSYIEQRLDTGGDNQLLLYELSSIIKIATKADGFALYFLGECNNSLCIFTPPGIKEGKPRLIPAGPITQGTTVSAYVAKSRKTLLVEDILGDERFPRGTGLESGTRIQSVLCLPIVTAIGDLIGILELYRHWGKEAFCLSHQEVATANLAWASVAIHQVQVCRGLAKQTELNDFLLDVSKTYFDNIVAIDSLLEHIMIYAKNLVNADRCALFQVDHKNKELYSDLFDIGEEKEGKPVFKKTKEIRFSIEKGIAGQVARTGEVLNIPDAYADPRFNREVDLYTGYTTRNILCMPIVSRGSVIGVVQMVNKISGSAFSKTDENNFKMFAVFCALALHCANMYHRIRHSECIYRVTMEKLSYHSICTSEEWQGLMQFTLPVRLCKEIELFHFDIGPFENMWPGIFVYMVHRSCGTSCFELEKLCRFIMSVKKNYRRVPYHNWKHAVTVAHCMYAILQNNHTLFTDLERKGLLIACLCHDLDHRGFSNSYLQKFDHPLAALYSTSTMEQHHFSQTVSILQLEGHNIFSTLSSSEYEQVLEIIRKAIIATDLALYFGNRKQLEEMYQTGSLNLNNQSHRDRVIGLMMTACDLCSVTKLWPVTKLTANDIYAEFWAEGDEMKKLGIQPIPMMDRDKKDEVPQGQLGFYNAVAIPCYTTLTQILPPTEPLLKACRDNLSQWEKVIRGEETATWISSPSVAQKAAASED

Compound: COCc1ccc(C(C)=O)c2sc(C(=O)Nc3ccc4c(CN5CCOCC5)cccc4n3)c(C)c12.Cl [Example 61, 7-Acetyl-4-(methoxymethyl)-3-methyl-N-(5-(morpholinomethyl)quinolin-2-yl)benzo[b]thiophene-2-carboxamide hydrochloride]
inhibition in vivo at 10 mg/kg (Male C57BL/6 Cr mice [1]): 122%
ED50 (Male C57BL/6 Cr mice [2]): 5.7 mg/kg

IC50 [3]: 0.42 nM
IC50 (PDE10A): 0.23 nM
Compound: COCc1ccc(C(C)=O)c2sc(C(=O)Nc3cc(CN4CC[C@H](O)C4)c4ccccc4n3)c(C)c12 [Example 38, (S)-7-Acetyl-N-(4-((3-hydroxypyrrolidin-1-yl)methyl)quinolin-2-yl)-4-(methoxymethyl)-3-methylbenzo[b]thiophene-2-carboxamide]
inhibition in vivo at 10 mg/kg (Male C57BL/6 Cr mice [1]): 88%
ED50 (Male C57BL/6 Cr mice [2]): 7 mg/kg

IC50 [3]: 0.41 nM
IC50 (PDE10A): 0.35 nM
Compound: COCc1ccc(C(C)=O)c2sc(C(=O)Nc3cc(CN4CC[C@@H](O)C4)c4ccccc4n3)c(C)c12 [Example 39, (R)-7-Acetyl-N-(4-((3-hydroxypyrrolidin-1-yl)methyl)quinolin-2-yl)-4-(methoxymethyl)-3-methylbenzo[b]thiophene-2-carboxamide]
inhibition in vivo at 10 mg/kg (Male C57BL/6 Cr mice [1]): 103%
ED50 (Male C57BL/6 Cr mice [2]): 3.1 mg/kg

IC50 [3]: 0.7 nM
IC50 (PDE10A): 0.3 nM
Compound: COCc1ccc(C(C)=O)c2sc(C(=O)Nc3ccc4c(C(=O)N5CC(OC)C5)cccc4n3)c(C)c12 [Example 102, 7-Acetyl-N-(5-((3-methoxyazetidin-1-yl)carbonyl)quinolin-2-yl)-4-(methoxymethyl)-3-methylbenzo[b]thiophene-2-carboxamide]
% inhibition (Male C57BL/6 Cr mice [1]): 120%

IC50 ([3]; hydrochloride): 1.9 nM
IC50 (PDE10A; hydrochloride): 0.93 nM
Compound: COCc1cccc2nc(NC(=O)c3sc4c(C(C)=O)ccc(COC)c4c3C)ccc12.Cl [Example 68, 7-Acetyl-4-(methoxymethyl)-N-(5-(methoxymethyl)quinolin-2-yl)-3-methylbenzo[b]thiophene-2-carboxamide hydrochloride]
% inhibition (Male C57BL/6 Cr mice [1]): 121%
ED50 (Male C57BL/6 Cr mice [2]): 3.6 mg/kg

Compound: COCc1ccc(C(C)=O)c2sc(C(=O)Nc3ccc4c(CO)cccc4n3)c(C)c12.Cc1ccc(S(=O)(=O)O)cc1 [Example 81, 7-Acetyl-N-(5-(hydroxymethyl)quinolin-2-yl)-4-(methoxymethyl)-3-methylbenzo[b]thiophene-2-carboxamide p-toluenesulfonate]
% inhibition (Male C57BL/6 Cr mice [1]): 122%
ED50 (Male C57BL/6 Cr mice [2]): 3.3 mg/kg

IC50 ([3]; benzenesulfonate): 2.2 nM
Compound: COCc1ccc(C(C)=O)c2sc(C(=O)Nc3ccc4c(C(=O)N5CC(OC)C5)cccc4n3)c(C)c12 [Example 104, 7-Acetyl-N-(5-((3-methoxyazetidin-1-yl)carbonyl)quinolin-2-yl)-4-(methoxymethyl)-3-methylbenzo[b]thiophene-2-carboxamide benzenesulfonate]

IC50 ([3]; methanesulfonate): 1.1 nM
Compound: COCc1ccc(C(C)=O)c2sc(C(=O)Nc3ccc4c(CS(C)(=O)=O)cccc4n3)c(C)c12 [Example 111, 7-Acetyl-4-(methoxymethyl)-3-methyl-N-(5-((methylsulfonyl)methyl)quinolin-2-yl)benzo[b]thiophene-2-carboxamide methanesulfonate]

IC50 ([3]; hydrobromide): 0.73 nM
Compound: COCc1ccc(C(C)=O)c2sc(C(=O)Nc3ccc4c(C(=O)N5CC(OC)C5)cccc4n3)c(C)c12 [Example 107, 7-Acetyl-N-(5-((3-methoxyazetidin-1-yl)carbonyl)quinolin-2-yl)-4-(methoxymethyl)-3-methylbenzo[b]thiophene-2-carboxamide hydrobromide]

IC50 (PDE10A): 0.76 nM
Compound: COCc1ccc(C(C)=O)c2sc(C(=O)Nc3ccc4c(CN5CC[C@@H](O)C5)cccc4n3)c(C)c12 [Example 64, (R)-7-Acetyl-N-(5-((3-hydroxypyrrolidin-1-yl)methyl)quinolin-2-yl)-4-(methoxymethyl)-3-methylbenzo[b]thiophene-2-carboxamide dihydrochloride]
inhibition in vivo at 10 mg/kg (Male C57BL/6 Cr mice [1]): 109%
ED50 (Male C57BL/6 Cr mice [2]): 7.2 mg/kg

IC50 (PDE10A; methanesulfonate): 0.38 nM
Compound: COCc1cccc2nc(NC(=O)c3sc4c(C(C)=O)ccc(COC)c4c3C)ccc12 [Example 69, 7-Acetyl-4-(methoxymethyl)-N-(5-(methoxymethyl)quinolin-2-yl)-3-methylbenzo[b]thiophene-2-carboxamide methanesulfonate]
% inhibition (Male C57BL/6 Cr mice [1]): 81%
ED50 (Male C57BL/6 Cr mice [2]): 3 mg/kg

IC50 (PDE10A; p-toluenesulfonate): 0.5 nM
Compound: COCc1ccc(C(C)=O)c2sc(C(=O)Nc3ccc4c(C(=O)N5CC(OC)C5)cccc4n3)c(C)c12.Cc1ccc(S(=O)(=O)O)cc1 [Example 106, 7-Acetyl-N-(5-((3-methoxyazetidin-1-yl)carbonyl)quinolin-2-yl)-4-(methoxymethyl)-3-methylbenzo[b]thiophene-2-carboxamide p-toluenesulfonate]
% inhibition (Male C57BL/6 Cr mice [1]): 87%
ED50 (Male C57BL/6 Cr mice [2]): 2.2 mg/kg

IC50 ([3]; p-toluenesulfonate): 1.3 nM
Compound: COCc1ccc(C(C)=O)c2sc(C(=O)Nc3cc(CN4CC[C@@H](O)C4)c4ccccc4n3)c(C)c12 [Example 41, (R)-7-Acetyl-N-(4-((3-hydroxypyrrolidin-1-yl)methyl)quinolin-2-yl)-4-(methoxymethyl)-3-methylbenzo[b]thiophene-2-carboxamide p-toluenesulfonate]

IC50 ([3]; hydrobromide): 0.84 nM
Compound: Br.COCc1ccc(C(C)=O)c2sc(C(=O)Nc3ccc4c(CS(C)(=O)=O)cccc4n3)c(C)c12 [Example 112, 7-Acetyl-4-(methoxymethyl)-3-methyl-N-(5-((methylsulfonyl)methyl)quinolin-2-yl)benzo[b]thiophene-2-carboxamide hydrobromide]
% inhibition (Male C57BL/6 Cr mice [1]): 57%

IC50 ([3]; hydrochloride): 0.31 nM
Compound: COCc1ccc(C(C)=O)c2sc(C(=O)Nc3ccc4c(C(=O)N5CC(OC)C5)cccc4n3)c(C)c12 [Example 103, 7-Acetyl-N-(5-((3-methoxyazetidin-1-yl)carbonyl)quinolin-2-yl)-4-(methoxymethyl)-3-methylbenzo[b]thiophene-2-carboxamide hydrochloride]

IC50 ([3]; hydrobromide): 2 nM
Compound: COCc1ccc(C(C)=O)c2sc(C(=O)Nc3cc(C(C)(C)O)c4ccccc4n3)c(C)c12 [Example 28, 7-Acetyl-N-(4-(2-hydroxypropan-2-yl)quinolin-2-yl)-4-(methoxymethyl)-3-methylbenzo[b]thiophene-2-carboxamide hydrobromide]

IC50 ([3]; hydrochloride): 1.4 nM
IC50 (PDE10A): 0.23 nM
Compound: COCc1ccc(C(C)=O)c2sc(C(=O)Nc3ccc4c(CS(C)(=O)=O)cccc4n3)c(C)c12 [Example 110, 7-Acetyl-4-(methoxymethyl)-3-methyl-N-(5-((methylsulfonyl)methyl)quinolin-2-yl)benzo[b]thiophene-2-carboxamide hydrochloride]
inhibition in vivo at 10 mg/kg (Male C57BL/6 Cr mice [1]): 76%

IC50 ([3]; hydrochloride): 0.65 nM
Compound: COCc1ccc(C(C)=O)c2sc(C(=O)Nc3cc(CN4CC[C@@H](O)C4)c4ccccc4n3)c(C)c12 [Example 40, (R)-7-Acetyl-N-(4-((3-hydroxypyrrolidin-1-yl)methyl)quinolin-2-yl)-4-(methoxymethyl)-3-methylbenzo[b]thiophene-2-carboxamide hydrochloride]
